Values quoted from earlier work as cited in patent publication US20030232787A1, “Combinations of an endothelin receptor antagonist and an antiepileptic compound having pain alleviating properties or analgesic” (priority 2002, published 2003).
Square brackets hold non-standard residues; d marks the D form. Peptide text beside a SMILES is read from it.

Columns and labels:
[1] = tested on: mouse model of inflammation and hyperalgesia; details: Piovezan et al. 2000; cited from earlier work
[2] = tested on: streptozotocin-induced static allodynia; details: rat; Field et al.; cited from earlier work
[3] = tested on: rat model of diabetic neuropathy; details: Jarvis et al. 2000; cited from earlier work

In the case of `CC(C)C[C@@H]1NC(=O)[C@@H](C(C)C)NC(=O)[C@@H]2CCCN2C(=O)[C@@H](CC(=O)O)NC(=O)[C@@H](Cc2c[nH]c3ccccc23)NC1=O` [BQ-123] (cyclo(L[dW][dD]P[dV])), the effect on pain [1] is given as “alleviate pain”.

In the case of `CC(NC(=O)C(C)(Cc1c[nH]c2ccccc12)NC(=O)OCc1cc2ccccc2o1)c1ccccc1` (stereo not drawn) [[2-(1H-indol-3-yl)-1-methyl-1-(1-phenyl-ethylcarbamoyl)-ethyl]-carbamic acid benzofuran-2-ylmethyl ester], the “effect on maintenance of streptozotocin-induced static allodynia” value [2] is listed as “block the maintenance of streptozotocin-induced static allodynia”.

In the case of `CCCCN(CCCC)C(=O)CN1C[C@H](c2ccc3c(c2)OCO3)[C@@H](C(=O)O)[C@@H]1c1ccc(OC)cc1` [ABT-627, 2R-(4-Methoxyphenyl)-4S-(1,3-benzodioxol-5-yl)-1-(N,N-di(n-butyl)aminocarbonyl-methyl)-pyrrolidine-3R-carboxylic acid], the effect on pain [3] is given as “attenuate pain”.
